The values below come from article PMC11085208, “Cyclometalated and NNN Terpyridine Ruthenium Photocatalysts and Their Cytotoxic Activity” (Molecules, 2024).

“And” between values parts separate entries of the source, which are not always exact repeats. Equal entries are not always repeated. “Also recorded” adds a separate entry of the source.

The test system of data set [1] is 8505C cells. Kind of data set: MTT cell viability assay, 8505C cells. The format is cell-based, human. The settings on record: MTT test, 72 h, mean ± SD. The text has this:
(§1) Anaplastic thyroid cancer (ATC), while rare, remains one of the deadliest cancers known, showing a median overall survival of 3 months. […] Several therapeutic strategies were thus developed, ranging from more classical methods such as inhibition of cyclin-dependent kinases, to more innovative ones including the use of epigenetic drugs. However, so far, all efforts made in the search for new molecules that can counteract the very high mortality of ATC have often been thwarted by the relative ease with which cancer cells are able to gain drug resistance. For these reasons, the development of new molecules that can increase ATC treatment options is crucial in an effort to extend the life expectancy. A preliminary assessment of the effects of the compounds under consideration involved studying their effectiveness in terms of cell viability. In order to evaluate the antitumor efficacy of ruthenium compounds, they were administered to ATC cells (SW1736 and 8505C) and to a non-tumorigenic thyroid cell line (Nthy-ori 3-1) at increasing doses, and an MTT assay was performed. Once the effects in terms of cell viability were observed, the effective dose 50 (ED50) was calculated by interpolation of the scatter plot curve (dose/effect). The two lines of ATC were similarly sensitive to each of the compounds tested, with the ED50 spanning from 0.3 to 8 µM, calculated at a 72 h time point (Table 2).
(§2) In this study, we used two different human anaplastic thyroid cancer cell lines (SW1736 and 8505C) and a non-tumorigenic thyroid cell line (Nthy-ori 3-1) that were grown as previously described. All cell lines have been validated by short tandem repeat and tested for being mycoplasma-free. Cells were grown in RPMI 1640 medium (EuroClone, Milan, Italy) supplemented with 10% fetal bovine serum (Gibco Invitrogen, Milan, Italy), 2 mM L-glutamine (EuroClone, Milan, Italy), and […] gentamicin (Gibco Invitrogen, Milan, Italy). Cells were maintained in a humidified incubator (5% CO2, 37 °C).
(§3) In order to test cell viability, we applied the methylthiazolyldiphenyl-tetrazolium bromide (MTT) assay as previously described. SW1736, 8505C and Nthy-ori 3-1cells (3000 cells/well) were plated onto 96-well plates in 200 μL medium/well and were allowed to attach to the plate for 24 h (t0). Plates were then treated either with DMSO or with each of the different compounds at different concentrations for 72 h. Then, 4 mg/mL MTT (Merck, Darmstadt, Germany) was added to the cell medium, and cells were cultivated for another 4 h in the incubator. The supernatant was removed, 100 μL/well of DMSO (Merck, Darmstadt, Germany) was added, and the absorbance at 570 nm was measured. All experiments were run sixfold and cell viability was expressed as a fold change compared to control. ED50 was calculated by interpolation of the scatter plot obtained by crossing each dose with its own observed effect.
For orientation: Tetrazolium assays rely on reduction of a dye to a coloured formazan, in cell work by metabolically active cells.

The test system of data set [2] is SW1736 cells. Kind of data set: MTT cell viability assay, SW1736 cells. The format is cell-based, human. Particulars: for ED50 SW1736: MTT test, 72 h, mean ± SD.
Excerpt: as §1, §2, §3

Data set [3] relates to Nthy-ori 3-1 cells. Briefly: MTT cell viability assay, non-tumorigenic Nthy-ori 3-1 cells. The format is cell-based, human. The settings on record: MTT test, 72 h, nontumorigenic thyroid cells, mean ± SD.
Excerpt: as §1, §2, §3

The subject of data set [4] is anaplastic thyroid cancer 8505C and SW1736 cell lines. Kind of data set: MTT cell viability assay, ATC cell lines taken together. The format is cell-based. The settings on record: 72 h.
Excerpt: as §1
In this study, we used two different human anaplastic thyroid cancer cell lines (SW1736 and 8505C) and a non-tumorigenic thyroid cell line (Nthy-ori 3-1) that were grown as previously described. […]
In order to test cell viability, we applied the methylthiazolyldiphenyl-tetrazolium bromide (MTT) assay as previously described. […] The supernatant was removed, 100 μL/well of DMSO (Merck, Darmstadt, Germany) was added, and the absorbance at 570 nm was measured. All experiments were run sixfold and cell viability was expressed as a fold change compared to control. ED50 was calculated by interpolation of the scatter plot obtained by crossing each dose with its own observed effect.

Take `N.N.[Cl][Pt][Cl]` [Cisplatin, reference compound]: the “ED50 8505C” value in data set [1] was 5.20 ± 1.82 µM. Moreover, the “ED50 SW1736” value in data set [2] worked out at 6.40 ± 1.54 µM. In data set [3], the “ED50 Nthy-ori 3-1” value is 11.28 ± 0.96 µM.

In the case of “[Ru(η^1-OAc)(NNN-tpy)((R,R)-Skewphos)]OAc [Complex 6]”, the “ED50 8505C” value in data set [1] turned out to be 1.88 ± 0.21 µM. Also, the “ED50 SW1736” value in data set [2] was 1.39 µM and 1.39 ± 0.14 µM. In addition, the “ED50 Nthy-ori 3-1” value in data set [3] was 4.38 ± 0.13 µM.

Turning to “[Ru(η^1-OAc)(NNN-tpy)((S,S)-Skewphos)]OAc [Complex 7]”, the “ED50 8505C” value in data set [1] is listed as 0.75 ± 0.09 µM. In data set [2] (ED50 0.31 vs 1.39 µM), the “cytotoxicity (ED50) compared to the enantiomer 6” value is given as “four times lower; also recorded: four times higher”. Also, the “ED50 SW1736” value in data set [2] was 0.31 µM and 0.31 ± 0.11 µM. In addition, the “ED50 Nthy-ori 3-1” value in data set [3] turned out to be 4.85 ± 0.17 µM.

Take “[Ru(η^2-OAc)(NC-tpy)((R,R)-Skewphos)] [Complex 4]”: the “ED50 8505C” value in data set [1] turned out to be 1.95 ± 0.23 µM. In addition, in data set [2], the “ED50 SW1736” value is 2.18 ± 0.16 µM. The “cytotoxicity (in words)” value in data set [4] is reported as “moderate cytotoxicity”. For the same molecule, in data set [3], the “ED50 Nthy-ori 3-1” value is recorded as 3.88 ± 0.31 µM.

Take “[Ru(η^2-OAc)(NC-tpy)((S,S)-Skewphos)] [Complex 5]”: in data set [1], the “ED50 8505C” value turned out to be 2.06 ± 0.26 µM. In data set [2], the “ED50 SW1736” value came to 2.11 ± 011 µM. The “cytotoxicity (in words)” value in data set [4] is recorded as “moderate cytotoxicity”. In data set [3], the “ED50 Nthy-ori 3-1” value came out at 4.18 ± 0.09 µM.

In the case of [Ru(η^2-OAc)(NC-tpy)(dppb)] [Complex 1], in data set [1], the “ED50 8505C” value came out at 7.73 ± 1.02 µM. The “ED50 SW1736” value in data set [2] was 8.53 ± 0.98 µM. The “cytotoxicity (in words)” value in data set [4] is on record as “moderate cytotoxicity”. Moreover, the “ED50 Nthy-ori 3-1” value in data set [3] stood at 10.59 ± 1.28 µM.

Consider “[RuCl(NNN-tpy)((R,R)-Skewphos)]Cl [reference compound]”, for which, in data set [1], the “ED50 8505C” value is reported as 4.57 ± 0.53 µM. Moreover, the “ED50 SW1736” value in data set [2] is given as 3.36 ± 0.42 µM. The “ED50 Nthy-ori 3-1” value in data set [3] is on record as 6.91 ± 0.62 µM.

As for “[RuCl(NNN-tpy)((S,S)-Skewphos)]PF6 [reference compound]”, in data set [1], the “ED50 8505C” value was determined as 2.25 ± 0.17 µM. Moreover, the “ED50 SW1736” value in data set [2] is 2.63 µM and 2.63 ± 0.14 µM. Besides, the “ED50 Nthy-ori 3-1” value in data set [3] is on record as 7.21 ± 0.74 µM.
